Experimental data published in PubChem BioAssay AID1963973 (Molecular Pharmacology Branch, DTP, NCI, 2024).

System: 883617-216-R-J1-PDC tumor spheroids, viability
Experiment: Anticancer human tumor 883617-216-R-J1-PDC patient-derived bladder carcinoma cell line growth inhibition [PI3K]
Details: spheroids with HUVEC and MSC; for viability, T/C: stronger effect = lower value; active = viability on the fitted dose curve at most 10% of control; inactive = the rest
Procedure, shortened: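 Tumor cells were combined with HUVEC and MSCs into spheroids, then dosed with PI3K-inhibitor combinations over half-log ranges capped near clinical Cmax or 10 microM.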

[1] = curve of first compound, second compound 0.0316 µM
[2] = curve of first compound, second compound 0.1 µM
[3] = curve of first compound, second compound 0.316 µM
[4] = curve of first compound, second compound 1 µM
[5] = curve of first compound, second compound 3.16 µM
[6] = curve of first compound, second compound 10 µM
[7] = second compound 0.0316 µM, first compound 0.0316 µM
[8] = second compound 0.0316 µM, first compound 0.1 µM
[9] = second compound 0.0316 µM, first compound 0.316 µM
[10] = second compound 0.0316 µM, first compound 1 µM
[11] = second compound 0.0316 µM, first compound 3.16 µM
[12] = second compound 0.0316 µM, first compound 10 µM
[13] = second compound 0.1 µM, first compound 0.0316 µM
[14] = second compound 0.1 µM, first compound 0.1 µM
[15] = second compound 0.1 µM, first compound 0.316 µM
[16] = second compound 0.1 µM, first compound 1 µM
[17] = second compound 0.1 µM, first compound 3.16 µM
[18] = second compound 0.1 µM, first compound 10 µM
[19] = second compound 0.316 µM, first compound 0.0316 µM
[20] = second compound 0.316 µM, first compound 0.1 µM
[21] = second compound 0.316 µM, first compound 0.316 µM
[22] = second compound 0.316 µM, first compound 1 µM
[23] = second compound 0.316 µM, first compound 3.16 µM
[24] = second compound 0.316 µM, first compound 10 µM
[25] = second compound 1 µM, first compound 0.0316 µM
[26] = second compound 1 µM, first compound 0.1 µM
[27] = second compound 1 µM, first compound 0.316 µM
[28] = second compound 1 µM, first compound 1 µM
[29] = second compound 1 µM, first compound 3.16 µM
[30] = second compound 1 µM, first compound 10 µM
[31] = second compound 3.16 µM, first compound 0.0316 µM
[32] = second compound 3.16 µM, first compound 0.1 µM
[33] = second compound 3.16 µM, first compound 0.316 µM
[34] = second compound 3.16 µM, first compound 1 µM
[35] = second compound 3.16 µM, first compound 3.16 µM
[36] = second compound 3.16 µM, first compound 10 µM
[37] = second compound 10 µM, first compound 0.0316 µM
[38] = second compound 10 µM, first compound 0.1 µM
[39] = second compound 10 µM, first compound 0.316 µM
[40] = second compound 10 µM, first compound 1 µM
[41] = second compound 10 µM, first compound 3.16 µM
[42] = second compound 10 µM, first compound 10 µM
[43] = curve of first compound, second compound 0.00316 µM
[44] = curve of first compound, second compound 0.01 µM
[45] = second compound 0.00316 µM, first compound 0.0316 µM
[46] = second compound 0.00316 µM, first compound 0.1 µM
[47] = second compound 0.00316 µM, first compound 0.316 µM
[48] = second compound 0.00316 µM, first compound 1 µM
[49] = second compound 0.00316 µM, first compound 3.16 µM
[50] = second compound 0.00316 µM, first compound 10 µM
[51] = second compound 0.01 µM, first compound 0.0316 µM
[52] = second compound 0.01 µM, first compound 0.1 µM
[53] = second compound 0.01 µM, first compound 0.316 µM
[54] = second compound 0.01 µM, first compound 1 µM
[55] = second compound 0.01 µM, first compound 3.16 µM
[56] = second compound 0.01 µM, first compound 10 µM
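Also: spheroids exposed to agents for 7 days before the viability read.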

CC1(C)CCC(CN2CCN(c3ccc(C(=O)NS(=O)(=O)c4ccc(NCC5CCOCC5)c([N+](=O)[O-])c4)c(Oc4cnc5[nH]ccc5c4)c3)CC2)=C(c2ccc(Cl)cc2)C1 + CC(Nc1ncnc2nc[nH]c12)c1cc2cccc(Cl)c2c(=O)n1-c1ccccc1
> 10000 nM: IC50 [1] | IC50 [2]
inactive: viability, T/C [7] 93.1% | viability, T/C [8] 87.2% | viability, T/C [9] 93.8% | viability, T/C [10] 87.7% | viability, T/C [11] 87% | viability, T/C [12] 50.8% | viability, T/C [13] 97% | viability, T/C [14] 84.3% | viability, T/C [15] 91.7% | viability, T/C [16] 97.5% | viability, T/C [17] 90.8% | viability, T/C [18] 52% | viability, T/C [19] 94.7% | viability, T/C [20] 96.2% | viability, T/C [21] 92% | viability, T/C [22] 88% | viability, T/C [23] 76.6% | viability, T/C [24] 46.9% | viability, T/C [25] 85.2% | viability, T/C [26] 85.8% | viability, T/C [27] 88% | viability, T/C [28] 79.3% | viability, T/C [29] 70.1% | viability, T/C [30] 44.2% | viability, T/C [31] 62.6% | viability, T/C [32] 76% | viability, T/C [33] 62.6% | viability, T/C [34] 65.7% | viability, T/C [35] 59.2% | viability, T/C [36] 44.1% | viability, T/C [37] 49% | viability, T/C [38] 52.6% | viability, T/C [39] 46.3% | viability, T/C [40] 40.3% | viability, T/C [41] 46.1% | viability, T/C [42] 28.3%
8990 nM: IC50 [3]
7690 nM: IC50 [4]
< 31.6 nM: IC50 [6]
6400 nM: IC50 [5]

CC(C)NCC(C(=O)N1CCN(c2ncnc3c2C(C)CC3O)CC1)c1ccc(Cl)cc1 (centres undefined) + CC(Nc1ncnc2nc[nH]c12)c1cc2cccc(Cl)c2c(=O)n1-c1ccccc1
520 nM: IC50 [1]
556 nM: IC50 [2]
345 nM: IC50 [5]
active: viability, T/C [12] 9.17% | viability, T/C [18] 8.02% | viability, T/C [24] 8.48% | viability, T/C [30] 6.81% | viability, T/C [36] 7.2% | viability, T/C [42] 6.37%
492 nM: IC50 [3]
513 nM: IC50 [4]
< 31.6 nM: IC50 [6]
inactive: viability, T/C [7] 87.6% | viability, T/C [8] 84.8% | viability, T/C [9] 55% | viability, T/C [10] 39.7% | viability, T/C [11] 17.8% | viability, T/C [13] 78.2% | viability, T/C [14] 76% | viability, T/C [15] 59.9% | viability, T/C [16] 38.7% | viability, T/C [17] 18.9% | viability, T/C [19] 97.8% | viability, T/C [20] 78.8% | viability, T/C [21] 60.9% | viability, T/C [22] 35.4% | viability, T/C [23] 17.8% | viability, T/C [25] 69.1% | viability, T/C [26] 81.1% | viability, T/C [27] 52.4% | viability, T/C [28] 40% | viability, T/C [29] 17.1% | viability, T/C [31] 64% | viability, T/C [32] 53.8% | viability, T/C [33] 55.2% | viability, T/C [34] 28.8% | viability, T/C [35] 16.5% | viability, T/C [37] 49.6% | viability, T/C [38] 42.7% | viability, T/C [39] 38.7% | viability, T/C [40] 25.4% | viability, T/C [41] 13.1%

CNC(=O)c1ccc(N2C(=S)N(c3ccc(C#N)c(C(F)(F)F)c3)C(=O)C2(C)C)cc1F + COc1c(OCCCN2CCOCC2)ccc2c3n(c(=NC(=O)c4cnc(N)nc4)nc12)CCN3
active: viability, T/C [20] 5.99% | viability, T/C [21] 4.55% | viability, T/C [22] 5.36% | viability, T/C [23] 5.23% | viability, T/C [24] 4.37% | viability, T/C [25] 3.25% | viability, T/C [26] 3.07% | viability, T/C [27] 2.92% | viability, T/C [28] 3.17% | viability, T/C [29] 4.14% | viability, T/C [30] 3.08%
> 10000 nM: IC50 [43] | IC50 [44]
inactive: viability, T/C [45] 72.6% | viability, T/C [46] 79.7% | viability, T/C [47] 85.4% | viability, T/C [48] 87.3% | viability, T/C [49] 98.2% | viability, T/C [50] 71.9% | viability, T/C [51] 61.9% | viability, T/C [52] 68.4% | viability, T/C [53] 64.3% | viability, T/C [54] 63.4% | viability, T/C [55] 73.6% | viability, T/C [56] 65.6% | viability, T/C [7] 29.5% | viability, T/C [8] 39% | viability, T/C [9] 47.5% | viability, T/C [10] 37.7% | viability, T/C [11] 35.9% | viability, T/C [12] 29% | viability, T/C [13] 16.3% | viability, T/C [14] 15.1% | viability, T/C [15] 19% | viability, T/C [16] 17.3% | viability, T/C [17] 16.9% | viability, T/C [18] 11.9% | viability, T/C [19] 10.4%
< 31.6 nM: IC50 [1] | IC50 [2] | IC50 [3] | IC50 [4]

CC(Cn1ccc(-c2ccc(C#N)c(Cl)c2)n1)NC(=O)c1cc(C(C)O)[nH]n1 (centres undefined)
inactive: viability, T/C (compound 0.1 µM) 90.8% [middle of 4 runs] | viability, T/C (compound 0.316 µM) 104% [middle of 4 runs] | viability, T/C (compound 1 µM) 95.5% [middle of 4 runs] | viability, T/C (compound 3.16 µM) 110% [middle of 4 runs] | viability, T/C (compound 10 µM) 102% [middle of 4 runs]
> 10000 nM: IC50 (curve of compound)

CC1(C)CCC(Nc2ncc(C(F)(F)F)c(-c3c[nH]c4c(P(C)(C)=O)c(C#N)ccc34)n2)CN1 (centres undefined) + COc1c(OCCCN2CCOCC2)ccc2c3n(c(=NC(=O)c4cnc(N)nc4)nc12)CCN3
inactive: viability, T/C [45] 30.3% | viability, T/C [46] 35% | viability, T/C [47] 33% | viability, T/C [48] 32.9% | viability, T/C [49] 13.7% | viability, T/C [51] 31.4% | viability, T/C [52] 29.6% | viability, T/C [53] 24.3% | viability, T/C [54] 23.4% | viability, T/C [55] 15.2% | viability, T/C [7] 20.4% | viability, T/C [8] 22.8% | viability, T/C [9] 24.7% | viability, T/C [10] 21.6% | viability, T/C [11] 9.22% | viability, T/C [13] 15.2% | viability, T/C [14] 12.5% | viability, T/C [15] 12.8%
active: viability, T/C [50] 0.49% | viability, T/C [56] 1.02% | viability, T/C [12] 0.59% | viability, T/C [16] 10.9% | viability, T/C [17] 6.57% | viability, T/C [18] 1.66% | viability, T/C [19] 5.18% | viability, T/C [20] 4.62% | viability, T/C [21] 4.01% | viability, T/C [22] 4.88% | viability, T/C [23] 1.53% | viability, T/C [24] 0.09% | viability, T/C [25] 2.28% | viability, T/C [26] 1.83% | viability, T/C [27] 1.8% | viability, T/C [28] 1.55% | viability, T/C [29] 0.47% | viability, T/C [30] 0.27%
< 31.6 nM: IC50 [43] | IC50 [44] | IC50 [1] | IC50 [2] | IC50 [3] | IC50 [4]
